{"source": "patent US20240210394A1", "about": "“MICROORGANISM CAPTURE FROM ANTIMICROBIAL-CONTAINING SOLUTION” (MOMENTUM BIOSCIENCE LIMITED, priority 2019, published 2024)", "key": {"S. aureus [1]": {"test_system": "S. aureus", "experiment": "Blood culture time to positivity (flip time), bead rescue vs no-rescue control", "assay_type": "cell-based", "settings": "for Difference (Days) compared to BE / Flip time in Days: Vancomycin 500 mg/L blood, antibiotic-labelled line = BC control without beads; for Flip time in Days: bead rescue with named bead type; for Bead Rescue Flip time / Control Flip time in Days: antibiotic 500 mg/L blood; for Flip time: Cefepime 164 mg/L blood", "method": "An overnight culture of test organism was prepared in blood/broth medium (50:50 blood:broth medium from a BioMerieux SA culture bottle).\nTen-fold serial dilutions of overnight culture was prepared in blood/broth as required.\nAntibiotic (abx) was added to whole human blood (in citrate-phosphate-dextrose, CPD, an anticoagulant) at required level.\nWhole blood was used as the no-antibiotic control.\nTest dilution(s) of organism was added to blood+antibiotic or blood only at 10 μL per mL of blood (sufficient prepared for experiment requirements). 100 μL plate count sample was taken (TO sample).\nThe inoculated samples were incubated at 37° C. (static) for 2-hour. 100 μL plate count sample was taken (T2 sample).\nFor the control, 5 mL of spiked blood+abx or blood only was added to blood culture bottles (BioMerieux SA culture bottle) using a vial adapter (West Pharmaceutical Services, Inc. PA, US) and incubated in the automated blood culture cabinet (adapter removed).\nFor the ‘rescue’ test, 5 mL of spiked blood+abx or blood only was treated with Momentum Capture Beads (Streptavidin-coated, −300 nm beads, Bio estapor, Merk Cat #BE-M 08/0.3) as below: • Momentum Capture Beads diluted in Detergent-free Microbial Binding Buffer (DMBB—Tris+NaCl)—50 μL beads:700 μL DMBB per clean-up • 750 μL of diluted beads added to 50 mL conical centrifuge tube • 5 mL of broth medium added to tube • 5 mL of spiked blood+abx or blood only added to tube • Incubate on ITL TherMix (Integrated Technologies Ltd. Kent, UK), 32.5° C./30 min/1000 rpm—ramped speed protocol • Magnetise on V&P magnet (V&P scientific Inc, CA, US) for 5 min then remove supernatant • Resuspend beads in 1 mL Detergent-free Wash Buffer (DWB—Tris+NaCl) off magnet and transfer to 2 mL Eppendorf flip-top tube on DynaMag-2 magnet (Thermo Fisher Scientific, Life Technologies Ltd. Paisley, UK) • Magnetise for 5 min then remove supernatant • Resuspend beads in 1 mL DWB off magnet then replace on DynaMag-2 magnet • Magnetise for 5 min then remove supernatant • Resuspend beads in 1 mL DWB, add to a fresh, unused blood culture bottle (BioMerieux SA culture bottle) containing standard blood culture growth medium using a vial adapter, and start incubation (adapter removed). • Blood culture bottles are incubated in the automated blood culture cabinet (BacT/ALERT BioMerieux) which records time to positivity. The “Flip” time is when a bottle turns positive as determined by the automated blood culture cabinet. • “Flip” time of each bottle is recorded. • Plate counts (Total Viable Count TVC) are recorded.\n(§1) Day 1: Prepare overnight culture of test organism in blood/broth medium (50:50 blood:broth) and incubate at 37° C. in a shaking incubator.\nDay 2: Prepare ten-fold serial dilution of overnight culture in blood/broth as required • Antibiotic added to whole blood (defibrinated horse blood) at required level • Whole blood as no-antibiotic control • Test dilution(s) of organism added to blood+antibiotic or blood only at 10 μL per mL of blood (sufficient prepared for experiment requirements) • 100 μL plate count sample taken (TO sample) • 2-hour incubation at 37° C. (static), to mimic organism exposure to antimicrobials in the patient • 100 μL plate count sample taken (T2 sample) • 5 mL of spiked blood+abx or blood only added to blood culture bottle (using vial adapter) and incubation started (adapter removed) • 5 mL of spiked blood+abx or blood only (from same source) treated with Momentum Capture Beads as below: • 1. Momentum Capture Beads diluted in Detergent-free Microbial Binding Buffer (DMBB)—50 μL beads:700 μL DMBB per clean-up • 2. 750 μL of diluted beads added to 50 mL conical centrifuge tube • 3. 5 mL of transfer medium added to tube • 4. 5 mL of spiked blood+abx or blood only added to tube • 5."}, "S. aureus [2]": {"test_system": "S. aureus", "experiment": "Antibiotic breakpoint experiment (plate counts at 0, 2.5 and 5 hours)", "assay_type": "cell-based", "settings": "two different strains of S. aureus, every time point", "method": "To determine a starting point in terms of antibiotic concentration and microbial load for subsequent experiments. Antibiotic concentration ranges were tested to find appropriate breakpoints for use in experiments. A range of antibiotic concentrations were tested against a given microbial load to determine the concentration at which growth was inhibited but the microorganisms were not killed. This was determined by plate counts at intervals of 0, 2.5 and 5 hours.\n• 1. Day 1: Prepare an overnight culture of the test organism in 3 mL of blood/broth solution (1.5 mL defibrinated Horse blood: 1.5 mL transfer Medium). • 2. Day 2: Dissolve antibiotic in required diluent to prepare a suitable stock solution and prepare a dilution series in Nuclease-free Water to cover a final concentration range of 100 to 0.001 and Omg/L. • 3. Dilute the overnight culture of the microorganism to the required point in pre-warmed blood/broth solution. This may require determining for each organism/antibiotic combination, but as a starting dilution 10-4 will be used (giving a final concentration in the sample of 10-5). • 4. Aliquot 980 μL of pre-warmed defibrinated horse blood into the required number of 2 mL flip-top tube. • 5. […]\nThe concentrations determined by this protocol were used in the following examples unless stated otherwise. […]"}, "S. aureus [3]": {"test_system": "S. aureus", "settings": "cited from earlier work"}, "Pseudomonas aeruginosa": {"test_system": "Pseudomonas aeruginosa", "settings": "P. aeruginosa; cited from earlier work"}, "E. coli [4]": {"test_system": "E. coli", "experiment": "Blood culture time to positivity (flip time), bead rescue vs no-rescue control", "assay_type": "cell-based", "settings": "Cefepime 164 mg/L blood; for Flip time: Bead rescue; for Flip time in Days: Control (FA plus bottle)", "method": "as §1\nDay 2: Prepare ten-fold serial dilution of overnight culture in blood/broth as required and incubate at 37° C. for 2 h for outgrowth.\nAdd 5 mL of spiked blood+beads (set 1) and 5 mL of spiked blood/Abx+beads (set 3) to blood culture bottles (BioMerieux SA culture bottle) using a vial adapter (West Pharmaceutical Services, Inc. PA, US).\nRemove the adaptor and incubate the blood culture bottles in the automated blood culture cabinet (BacT/ALERT BioMerieux) for up to 5 days.\nRecord the “Flip” time of each bottle or bottle result at the end of 5 days incubation. The “Flip” time is when a bottle turns positive as determined by the automated blood culture cabinet, which records time to positivity.\nDay 1: Prepare overnight culture of test organism in blood/broth medium (50:50 blood:broth) and incubate at 37° C. (or 30° C. for C. neoformans) in a shaking incubator.\n(or 30° C. for C. neoformans) for 2 h for outgrowth. • Antibiotic added to whole blood (defibrinated horse blood) at required level • Whole blood as no-antibiotic control • Test dilution(s) of organism added to blood+antibiotic or blood only at 10 μL per mL of blood (sufficient prepared for experiment requirements) • 100 μL plate count sample taken (TO sample) • 2-hour incubation (static) at 37° C. (or 30° C. for C. neoformans) • 100 μL plate count sample taken (T2 sample) • 5 mL of spiked blood+abx or blood only added to blood culture bottle (using vial adapter) and incubation started (adapter removed) • 5 mL of spiked blood+abx or blood only (from same source) treated with Momentum Capture Beads as below: • 1. Capture Beads diluted in the relevant Capture Reagent—50 μL beads:700 μL capture reagent per clean-up • 2. 750 μL of diluted beads added to 50 mL conical centrifuge tube • 3. 5 mL of transfer medium added to tube • 4. 5 mL of spiked blood+abx or blood only added to tube • 5. […] Magnetise on V&P magnet for 10 min then remove supernatant • 7. Resuspend beads in 1 mL Detergent-free Wash Buffer (DWB) off magnet and transfer to 2 mL Eppendorf flip-top tube on DynaMag-2 magnet • 8. Magnetise for 3 min then remove supernatant • 9. Resuspend beads in 1 mL Detergent-free Wash Buffer (DWB) off magnet then replace on DynaMag-2 magnet • 10. Magnetise for 3 min then remove supernatant • 11. Resuspend beads in 1 mL DWB, add to new blood culture bottle (using vial adapter) and start incubation (adapter removed)\nMomentum Capture Beads diluted in the relevant Capture Reagent—50 μL beads:700 μL capture reagent per clean-up • 2. 750 μL of diluted beads added to 50 mL conical centrifuge tube • 3. 5 mL of transfer medium added to tube • 4. 5 mL of spiked blood+abx or blood only added to tube • 5. […] Magnetise on V&P magnet for 10 min then remove supernatant • 7. Resuspend beads in 1 mL Detergent-free Wash Buffer (DWB) off magnet and transfer to 2 mL Eppendorf flip-top tube on DynaMag-2 magnet • 8. Magnetise for 3 min then remove supernatant • 9. Resuspend beads in 1 mL Detergent-free Wash Buffer (DWB) off magnet then replace on DynaMag-2 magnet • 10. Magnetise for 3 min then remove supernatant • 11. Resuspend beads in 1 mL DWB, add to an unused blood culture bottle (BioMerieux FA+culture bottle) using vial adapter and start incubation (adapter removed)"}, "E. coli [5]": {"test_system": "E. coli", "settings": "cited from earlier work"}, "Klebsiella pneumoniae": {"test_system": "Klebsiella pneumoniae", "settings": "K. pneumoniae; cited from earlier work"}}, "data": [{"smiles": "CN[C@H](CC(C)C)C(=O)N[C@H]1C(=O)N[C@@H](CC(N)=O)C(=O)N[C@H]2C(=O)N[C@H]3C(=O)N[C@H](C(=O)N[C@H](C(=O)O)c4cc(O)cc(O)c4-c4cc3ccc4O)[C@H](O)c3ccc(c(Cl)c3)Oc3cc2cc(c3O[C@@H]2O[C@H](CO)[C@@H](O)[C@H](O)[C@H]2O[C@H]2C[C@](C)(N)[C@H](O)[C@H](C)O2)Oc2ccc(cc2Cl)[C@H]1O", "note": "[Vancomycin]", "values": [{"measurement": "No-rescue blood culture control result", "setting": "S. aureus [1]; Example 23, S. aureus in blood containing 500 mg/L Vancomycin", "result": "negative after 5 days"}, {"measurement": "No-rescue blood culture controls result", "setting": "S. aureus [1]; Example 24, S. aureus in blood containing 500 mg/L Vancomycin", "result": "negative"}, {"measurement": "Difference (Days) compared to BE", "setting": "S. aureus [1]; 20000 Cfu/mL", "result": "Negative"}, {"measurement": "Flip time in Days", "setting": "S. aureus [1]; 20000 Cfu/mL", "result": "Negative"}, {"measurement": "Difference (Days) compared to BE", "setting": "S. aureus [1]; 35760 Cfu/mL", "result": "Negative"}, {"measurement": "Flip time in Days", "setting": "S. aureus [1]; 35760 Cfu/mL", "result": "Negative"}, {"measurement": "Difference (Days) compared to BE", "setting": "S. aureus [1]; 200000 Cfu/mL", "result": "Negative"}, {"measurement": "Flip time in Days", "setting": "S. aureus [1]; 200000 Cfu/mL", "result": "Negative"}, {"measurement": "Difference (Days) compared to BE", "setting": "S. aureus [1]; 357600 Cfu/mL", "result": "Negative"}, {"measurement": "Flip time in Days", "setting": "S. aureus [1]; 357600 Cfu/mL", "result": "Negative"}, {"measurement": "Bead Rescue Flip time", "setting": "S. aureus [1]; 1000 cfu/5 mL Blood", "result": 1.15, "unit": "days"}, {"measurement": "Control Flip time in Days", "setting": "S. aureus [1]; 1000 cfu/5 mL Blood", "result": "Neg"}, {"measurement": "Bead Rescue Flip time", "setting": "S. aureus [1]; 100000 cfu/5 mL Blood", "result": 0.66, "unit": "days"}, {"measurement": "Control Flip time in Days", "setting": "S. aureus [1]; 100000 cfu/5 mL Blood", "result": "Neg"}, {"measurement": "Bead Rescue Flip time", "setting": "S. aureus [1]; 1000000 cfu/5 mL Blood", "result": 0.61, "unit": "days"}, {"measurement": "Control Flip time in Days", "setting": "S. aureus [1]; 1000000 cfu/5 mL Blood", "result": "Neg"}, {"measurement": "Growth in antibiotic dilution series (breakpoint experiment)", "setting": "S. aureus [2]", "result": "grew in every dilution"}]}, {"smiles": "CO/N=C(\\C(=O)N[C@@H]1C(=O)N2C(C(=O)[O-])=C(C[N+]3(C)CCCC3)CS[C@H]12)c1csc(N)n1", "note": "[Cefepime]", "values": [{"measurement": "MIC", "setting": "S. aureus [3]", "result": "≤4", "unit": "µg/mL"}, {"measurement": "MIC", "setting": "Pseudomonas aeruginosa", "result": "≤1", "unit": "µg/mL"}, {"measurement": "Flip time", "setting": "E. coli [4]; 125000 cfu/5 mL blood", "result": 0.47, "unit": "days"}, {"measurement": "Flip time", "setting": "E. coli [4]; 1250000 cfu/5 mL blood", "result": 0.38, "unit": "days"}, {"measurement": "Flip time in Days", "setting": "E. coli [4]; 125000 cfu/5 mL blood", "result": "Neg"}, {"measurement": "Flip time in Days", "setting": "E. coli [4]; 1250000 cfu/5 mL blood", "result": "Neg"}, {"measurement": "MIC", "setting": "E. coli [5]", "result": "≤1", "unit": "µg/mL"}, {"measurement": "Flip time", "setting": "S. aureus [1]; Bead rescue, 125000 cfu/5 mL blood", "result": 0.46, "unit": "days"}, {"measurement": "Flip time", "setting": "S. aureus [1]; Bead rescue, 750000 cfu/5 mL blood", "result": 0.39, "unit": "days"}, {"measurement": "Flip time", "setting": "S. aureus [1]; Control (FA plus bottle), 125000 cfu/5 mL blood", "result": 2.69, "unit": "days"}, {"measurement": "Flip time", "setting": "S. aureus [1]; Control (FA plus bottle), 750000 cfu/5 mL blood", "result": 2.49, "unit": "days"}, {"measurement": "MIC", "setting": "Klebsiella pneumoniae", "result": "≤1", "unit": "µg/mL"}]}]}
